From patent US11426356B2, “Crosslinked particles” (Pendant Biosciences, Inc., priority 2015, dated 2022)

Key:
Type in all cases: physicochemical
[1] = Drug loading of crosslinked PVL-co-PAVL macroparticles (cylinders)
Protocol: (§1) Unless otherwise indicated, quantitation of drug products was carried out using HPLC methods. Calibration curves for drugs used herein (e.g., triamcinolone, triamcinolone hexacetonide, triamcinolone acetonide, paclitaxel, and curcumin) were prepared by injecting known concentrations of the drugs and measuring the area under the curve at each concentration. Analyses were carried out using an Agilent Zorbax Eclipse XDB-C18 column (150×4.6 mm i.d.) with a 12.5×4.6 mm guard column. The parameters for each drug are given below in Table 1
A crosslinked macroparticle weighing about 15 mg comprising PVL-co-PAVL (MW=14760 g/mol, 13% AVL, 87% VL) was loaded with 2.5 mg paclitaxel by overnight soaking in THF followed by the slow addition of 50 mL PBS containing 0.1% Tween.

[2] = Preliminary drug release from crosslinked macroparticles
Protocol: as §1
The macroparticles were suspended in PBS (0.1% Tween) and the release rate was observed. The macroparticles released 5% of the paclitaxel after 3 hours at room temperature and about 5% after 24 hours at room temperature.

[3] = Loading of particles with triamcinolone hexacetonide (swelling in THF, slow addition of water); details: included surface-bound drug or free drug in solution
Protocol: In some embodiments, the loading procedure can affect the amount of drug that is absorbed into a particle of the present disclosure. For example, as set forth in Examples 7 and 8, 25 mg of 75:25 (mPEG-PVL-PAVL:PVL-PAVL) particles were swollen overnight with 2 mg/mL triamcinolone hexacetonide in THF. However, without wishing to be bound by theory, slow addition of greater volumes of water can facilitate greater uptake of triamcinolone hexacetonide by allowing the drug to preferentially partition into the particles. As set forth in Examples 7 and 8, slow addition of water enabled 67% loading efficiency. Additional parameters, in addition to the rate of water addition, that can affect the loading of a drug into a particle of the present disclosure are, for instance, the solvent in which the drug is dissolved, the time that the particles soak with the drug, and the volume of water used. Other parameters include the pH and the ionic strength of the solvent. For example, protic organic solvents such as methanol or ethanol can be used in place of water to facilitate loading of drug into a particle of the present disclosure.
Unless otherwise indicated, quantitation of drug products was carried out using HPLC methods. […]

[4] = Release of triamcinolone hexacetonide from loaded particles in dissolution media
Protocol: as §1
25 mg of 75:25 (mPEG-PVL-PAVL:PVL-PAVL) particles were swollen overnight with 2 mg/mL triamcinolone hexacetonide in THF. 10 mL water including 0.1% tween was then added dropwise. The resulting mixture was centrifuged, the supernatant was collected, and the addition of 10 mL water including 0.1% tween was added dropwise again (2×; 30 mL total).
Without wishing to be bound by theory, this may be due to the fact that the triamcinolone hexacetonide crystallized on the surface of the particles. Without wishing to be bound by theory, this may be due to the relatively fast addition of water and the limited solubility of triamcinolone hexacetonide, which caused it to crystallize.
The loading efficiency, which included surface-bound drug or free drug in solution, was 67%. Upon suspending the particles in dissolution media, 20% of the triamcinolone hexacetonide was released within an hour, and 30% was released within 2 hours.

[5] = Curcumin loading, release and post-release extraction of microparticle flakes
Protocol: as §1
Crosslinked microparticles (15 mg) were loaded with 2.5 mg curcumin by overnight soaking in THF followed by the slow addition of 50 mL PBS containing 0.1% Tween. The microparticles were rinsed with THF to remove free curcumin and dried overnight.
It was observed that microparticles thus produced formed “flakes” that could not be re-suspended in THF or PBS buffer solution upon drying. […] The flakes could not be re-suspended in PBS buffer.
The release profile of curcumin of microparticle flakes produced by the method described above. The release profile is further quantified in Table 6, below.

[6] = about 15 mg PVL-co-PAVL macroparticle loaded with 2.5 mg paclitaxel
[7] = about 15 mg PVL-co-PAVL macroparticle, PBS (0.1% Tween), room temperature
[8] = triamcinolone hexacetonide, first cylinder (labelled with a circle)
[9] = particles of Example 8 suspended in dissolution media

SMILES: CC(=O)O[C@H]1C(=O)[C@@]2(C)[C@H]([C@H](OC(=O)c3ccccc3)[C@]3(O)C[C@H](OC(=O)[C@H](O)[C@@H](NC(=O)c4ccccc4)c4ccccc4)C(C)=C1C3(C)C)[C@]1(OC(C)=O)CO[C@@H]1C[C@@H]2O [paclitaxel]
- loading capacity [1, 6]: 1.7 % w/w
- loading efficiency [1, 6]: 30%
- paclitaxel released after 3 hours [2, 7]: 5%
- paclitaxel released after 24 hours [2, 7]: about 5%

SMILES: CC(C)(C)CC(=O)OCC(=O)[C@@]12OC(C)(C)O[C@@H]1C[C@H]1[C@@H]3CCC4=CC(=O)C=C[C@]4(C)[C@@]3(F)[C@@H](O)C[C@@]12C [triamcinolone hexacetonide]
- loading efficiency [3]: 67%
- amount of drug in the first cylinder [1, 8]: 1.118 mg
- capacity of the first cylinder [1, 8]: 9.12%
- capacity of the second cylinder ([1]; triamcinolone hexacetonide, second cylinder (labelled with an X)): 11.651%
- amount of drug in the second cylinder ([1]; triamcinolone hexacetonide, second cylinder (labelled with an X), in mg): 0.901
- total drug released after about 6 days ([2]; both triamcinolone hexacetonide cylinders, FIG. 23): about 60%
- release profile ([4]; Example 7: 75:25 (mPEG-PVL-PAVL:PVL-PAVL) particles, relatively fast addition of water, surface-crystallized drug): relatively rapid release
- triamcinolone hexacetonide released within 2 hours [4, 9]: 30%
- triamcinolone hexacetonide released within an hour [4, 9]: 20%

SMILES: COc1cc(/C=C/C(=O)CC(=O)/C=C/c2ccc(O)c(OC)c2)ccc1O [curcumin]
- capacity ([1]; curcumin-loaded cylinder): 9.64%
- amount of drug in the cylinder ([1]; curcumin-loaded cylinder dissolved in THF): 1.176 mg
- curcumin recovered in post-release extraction of the flakes ([5]; after 48 hours release): 57%
- curcumin released after 48 hours ([5]; from microparticle flakes): 51%
- curcumin released after about eight days ([2]; curcumin-loaded cylinder, FIG. 21): almost all
